# Measurements taken from PubChem BioAssay (NCI).
#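 At the GI50, growth is halved. The concentration for full growth arrest is given as TGI.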
# Key:
# Test in all cases: growth of human tumour cells (NCI), 384-well format
# [1] = system: RPMI-8226 leukemia
# [2] = system: PC-3 prostate
# [3] = system: T-47D breast
# [4] = system: A549 NSCLC
# [5] = system: U251 glioblastoma
# [6] = system: SF-268 CNS
# [7] = system: NCI-H460 NSCLC
# [8] = system: M14 melanoma
# [9] = system: CAKI-1 renal
# [10] = system: LOX IMVI melanoma
# [11] = system: EKVX NSCLC
# [12] = system: MDA-MB-435 melanoma
# [13] = system: HT29 colon
# [14] = system: OVCAR-8 ovarian
# [15] = system: BT-549 breast
# [16] = system: MDA-MB-231 breast
# [17] = system: HCC-2998 colon
# [18] = system: NCI-H23 lung
# [19] = system: HOP-92 NSCLC
# [20] = system: SW-620 colon
# [21] = system: UACC-62 melanoma
# [22] = system: HS 578T breast
# [23] = system: MALME-3M melanoma
# [24] = system: SK-MEL-28 melanoma
# [25] = system: HL-60(TB) leukemia
# [26] = system: SN12C renal
# [27] = system: NCI-H226 lung
# [28] = system: NCI-H322M lung
# [29] = system: OVCAR-5 ovarian
# [30] = system: 786-0 renal
# [31] = system: RXF 393 renal
# [32] = system: SNB-75 CNS
# [33] = system: OVCAR-4 ovarian
# [34] = system: HCT-116 colon
# [35] = system: NCI-H522 lung
# [36] = system: MCF7 breast
# [37] = system: SF-539 CNS
# [38] = system: IGROV1 ovarian
# [39] = system: UO-31 renal
# [40] = system: SNB-19 CNS
# [41] = system: DU-145 prostate
# [42] = system: MDA-MB-468 breast
# [43] = system: TK-10 renal
# [44] = system: OVCAR-3 ovarian
# [45] = system: MOLT-4 leukemia
# [46] = system: ACHN renal
# [47] = system: A498 renal
# [48] = system: HOP-62 NSCLC
# [49] = system: SK-OV-3 ovarian
# [50] = system: KM12 colon
# [51] = system: CCRF-CEM leukemia
# [52] = system: SK-MEL-5 melanoma
# [53] = system: NCI/ADR-RES ovarian
# [54] = system: SF-295 CNS
# [55] = system: UACC-257 melanoma
# [56] = system: COLO 205 colon
# [57] = system: HCT-15 colon
# [58] = system: K-562 leukemia
# [59] = system: SK-MEL-2 melanoma
compound,measurement,setting,value
CN(CCO)C1CCN(c2ccc(Nc3ncc4c5ccnc(F)c5n(C5CCCC5)c4n3)nc2)CC1,GI50,[1],47.7 nM
same,TGI,[1],1120 nM
same,GI50,[2],1430 nM
same,TGI,[2],2790 nM
same,GI50,[3],1880 nM
same,TGI,[3],67500 nM
same,GI50,[4],619 nM
same,TGI,[4],1990 nM
same,GI50,[5],1120 nM
same,TGI,[5],2350 nM
same,GI50,[6],79.4 nM
same,TGI,[6],941 nM
same,GI50,[7],188 nM
same,TGI,[7],1810 nM
same,GI50,[8],1190 nM
same,TGI,[8],2440 nM
same,GI50,[9],868 nM
same,TGI,[9],2150 nM
same,GI50,[10],977 nM
same,TGI,[10],2180 nM
same,GI50,[11],1270 nM
same,TGI,[11],2560 nM
same,GI50,[12],2260 nM
same,TGI,[12],9490 nM
same,GI50,[13],1020 nM
same,TGI,[13],2230 nM
same,GI50,[14],1620 nM
same,TGI,[14],3010 nM
same,GI50,[15],1490 nM
same,TGI,[15],2830 nM
same,GI50,[16],1260 nM
same,TGI,[16],2710 nM
same,GI50,[17],655 nM
same,TGI,[17],2010 nM
same,GI50,[18],1200 nM
same,TGI,[18],2460 nM
same,GI50,[19],3020 nM
same,TGI,[19],15400 nM
same,GI50,[20],574 nM
same,TGI,[20],2010 nM
same,GI50,[21],1350 nM
same,TGI,[21],2640 nM
same,GI50,[22],1420 nM
same,TGI,[22],3200 nM
same,GI50,[23],1340 nM
same,TGI,[23],2640 nM
same,GI50,[24],4060 nM
same,TGI,[24],16200 nM
same,GI50,[25],52.1 nM
same,TGI,[25],1760 nM
same,GI50,[26],3020 nM
same,TGI,[26],14900 nM
same,GI50,[27],5220 nM
same,TGI,[27],> 100000 nM
same,GI50,[28],1340 nM
same,TGI,[28],2640 nM
same,GI50,[29],885 nM
same,TGI,[29],> 100000 nM
same,GI50,[30],1150 nM
same,TGI,[30],2370 nM
same,GI50,[31],1280 nM
same,TGI,[31],2550 nM
same,GI50,[32],1480 nM
same,TGI,[32],2810 nM
same,GI50,[33],1730 nM
same,TGI,[33],3130 nM
same,GI50,[34],684 nM
same,TGI,[34],2050 nM
same,GI50,[35],1770 nM
same,TGI,[35],3170 nM
same,GI50,[36],353 nM
same,TGI,[36],1760 nM
same,GI50,[37],1380 nM
same,TGI,[37],2680 nM
same,GI50,[38],1050 nM
same,TGI,[38],2260 nM
same,GI50,[39],1200 nM
same,TGI,[39],2450 nM
same,GI50,[40],1370 nM
same,TGI,[40],2760 nM
same,GI50,[41],1720 nM
same,TGI,[41],3130 nM
same,GI50,[42],1630 nM
same,TGI,[42],2990 nM
same,GI50,[43],1370 nM
same,TGI,[43],2700 nM
same,GI50,[44],1870 nM
same,TGI,[44],3290 nM
same,GI50,[45],62.4 nM
same,TGI,[45],812 nM
same,GI50,[46],1000 nM
same,TGI,[46],2190 nM
same,GI50,[47],853 nM
same,TGI,[47],2120 nM
same,GI50,[48],1170 nM
same,TGI,[48],2420 nM
same,GI50,[49],1450 nM
same,TGI,[49],2780 nM
same,GI50,[50],56.8 nM
same,TGI,[50],1280 nM
same,GI50,[51],89.3 nM
same,TGI,[51],1250 nM
same,GI50,[52],480 nM
same,TGI,[52],2030 nM
same,GI50,[53],1740 nM
same,TGI,[53],3170 nM
same,GI50,[54],881 nM
same,TGI,[54],2150 nM
same,GI50,[55],1550 nM
same,TGI,[55],2900 nM
same,GI50,[56],373 nM
same,TGI,[56],1950 nM
same,GI50,[57],1080 nM
same,TGI,[57],2320 nM
same,GI50,[58],664 nM
same,TGI,[58],2090 nM
CO[C@@H](C(=O)N1Cc2[nH]nc(NC(=O)c3ccc(N4CCN(C)CC4)cc3)c2C1)c1ccccc1,GI50,[1],327 nM
same,TGI,[1],1460 nM
same,GI50,[2],1630 nM
same,TGI,[2],48600 nM
same,GI50,[3],9180 nM
same,TGI,[3],28000 nM
same,GI50,[4],442 nM
same,TGI,[4],15500 nM
same,GI50,[5],1710 nM
same,TGI,[5],16900 nM
same,GI50,[6],1020 nM
same,TGI,[6],2690 nM
same,GI50,[7],88.5 nM
same,TGI,[7],1260 nM
same,GI50,[8],9890 nM
same,TGI,[8],26300 nM
same,GI50,[9],1210 nM
same,TGI,[9],9850 nM
same,GI50,[10],330 nM
same,TGI,[10],1690 nM
same,GI50,[11],1050 nM
same,TGI,[11],15800 nM
same,GI50,[12],16900 nM
same,TGI,[12],32900 nM
same,GI50,[13],4960 nM
same,TGI,[13],> 100000 nM
same,GI50,[15],270 nM
same,TGI,[15],1470 nM
same,GI50,[16],2360 nM
same,TGI,[16],> 100000 nM
same,GI50,[17],12700 nM
same,TGI,[17],30300 nM
same,GI50,[18],822 nM
same,TGI,[18],12900 nM
same,GI50,[59],15500 nM
same,TGI,[59],29100 nM
same,TGI,[19],2800 nM
same,GI50,[20],848 nM
same,TGI,[20],13000 nM
same,GI50,[21],561 nM
same,TGI,[21],20100 nM
same,GI50,[22],1100 nM
same,TGI,[22],2440 nM
same,GI50,[23],642 nM
same,TGI,[23],15200 nM
same,GI50,[24],2670 nM
same,TGI,[24],18700 nM
same,GI50,[25],46.6 nM
same,TGI,[25],1510 nM
same,GI50,[26],737 nM
same,TGI,[26],3530 nM
same,GI50,[27],623 nM
same,TGI,[27],4910 nM
same,GI50,[28],3170 nM
same,TGI,[28],16700 nM
same,GI50,[29],1700 nM
same,TGI,[29],9220 nM
same,GI50,[30],2530 nM
same,TGI,[30],15100 nM
same,GI50,[31],334 nM
same,TGI,[31],2040 nM
same,GI50,[32],769 nM
same,TGI,[32],2090 nM
same,GI50,[33],566 nM
same,TGI,[33],23900 nM
same,GI50,[34],120 nM
same,TGI,[34],25200 nM
same,GI50,[35],34.6 nM
same,TGI,[35],561 nM
same,GI50,[36],37.1 nM
same,TGI,[36],13700 nM
same,GI50,[37],237 nM
same,TGI,[37],1420 nM
same,GI50,[38],547 nM
same,TGI,[38],2790 nM
same,GI50,[39],11000 nM
same,TGI,[39],25400 nM
same,GI50,[40],2290 nM
same,TGI,[40],> 100000 nM
same,GI50,[41],451 nM
same,TGI,[41],24400 nM
same,GI50,[43],1590 nM
same,TGI,[43],17800 nM
same,GI50,[44],113 nM
same,TGI,[44],2640 nM
same,GI50,[45],18.9 nM
same,TGI,[45],44.5 nM
same,GI50,[46],2410 nM
same,TGI,[46],18600 nM
same,GI50,[47],1230 nM
same,TGI,[47],25600 nM
same,GI50,[48],676 nM
same,TGI,[48],10500 nM
same,GI50,[49],899 nM
same,TGI,[49],12500 nM
same,GI50,[50],175 nM
same,TGI,[50],10900 nM
same,GI50,[52],11200 nM
same,TGI,[52],24600 nM
same,GI50,[53],> 100000 nM
same,TGI,[53],> 100000 nM
same,GI50,[54],1700 nM
same,TGI,[54],54400 nM
same,GI50,[55],13100 nM
same,TGI,[55],26400 nM
same,GI50,[56],24.4 nM
same,TGI,[56],63.9 nM
same,GI50,[57],14700 nM
same,TGI,[57],> 100000 nM
same,GI50,[58],32.6 nM
same,TGI,[58],167 nM
